Common to all, as to format: cell-based
Experiment [1] addresses T1, 5-HT2A receptor (Homo sapiens, UniProt P28223).
T1 construct: host or cells: HEK293
Briefly: FLIPR Ca2+ flux functional assay, 5-HT2A agonist activity. As to conditions: for Emax: agonist activity, Ca2+ flux, stably transfected HEK293 cells. The procedure:
(§1) Functional Assays 5-HT2A, 5-HT2B and 5-HT2C Receptors
(§2) Activity at 5-HT2A, 5-HT2B and 5-HT2C receptors was determined using a FLIPR Ca2+ flux assay at WuXi AppTec Co. Ltd. (Hong Kong) Discovery Biology Unit according to their standard protocols. Briefly, stably transfected cells expressing the receptor of interest (HEK293 for 5-HT2A and 5-HT2C; CHO-K1 for 5-HT2B) were grown and plated in a 384 well plate and incubated at 37° C. and 5% 002 overnight. A 250 mM stock solution of probenecid in FLIPR calcium assay buffer (10 mL) was freshly prepared and combined with a fluorescent dye (Fluo-4 Direct) to give a final assay concentration of 2.5 mM. Reference compounds were 4-fold serially diluted and the screening compounds were 3-fold serially diluted in 100% DMSO for 10 points using Agilent Bravo, and 750 nL was added to a 384 well compound plate using Echo along with 30 μL assay buffer. The fluorescent dye was then added to the assay plate along with assay buffer to a final volume of 40 μL. The cell plate was incubated for […] at 37° C. and 5% 002 and placed into the FLIPR Tetra along with the compound plate. 10 μL of references and compounds were then transferred from the compound plate into the cell plate and the fluorescent signal was read.

The target of experiment [2] is T2, 5-HT2B receptor (Homo sapiens, UniProt P41595).
T2 construct: host or cells: CHO-K1
T2 sequence (P41595 whole entry): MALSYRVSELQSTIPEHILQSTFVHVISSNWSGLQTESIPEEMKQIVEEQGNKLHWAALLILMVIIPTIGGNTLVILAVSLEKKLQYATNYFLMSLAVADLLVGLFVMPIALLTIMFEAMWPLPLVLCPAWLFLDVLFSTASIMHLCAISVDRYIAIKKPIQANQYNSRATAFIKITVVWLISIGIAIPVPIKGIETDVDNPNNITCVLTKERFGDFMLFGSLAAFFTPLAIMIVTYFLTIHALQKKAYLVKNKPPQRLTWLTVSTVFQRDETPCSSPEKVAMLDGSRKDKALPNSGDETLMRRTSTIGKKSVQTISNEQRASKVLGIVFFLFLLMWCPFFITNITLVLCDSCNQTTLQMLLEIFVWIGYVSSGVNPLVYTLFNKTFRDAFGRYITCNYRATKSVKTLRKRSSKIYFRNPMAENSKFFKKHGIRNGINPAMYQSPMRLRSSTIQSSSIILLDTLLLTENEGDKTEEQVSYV
Briefly: FLIPR Ca2+ flux functional assay, 5-HT2B agonist activity. As to conditions: for Emax: agonist activity, Ca2+ flux, stably transfected CHO-K1 cells. As for the experimental part:
as §1, §2

Experiment [3] addresses T3, 5-HT2C receptor (Homo sapiens, UniProt P28335).
T3 construct: host or cells: HEK293
T3 sequence (P28335 33-458): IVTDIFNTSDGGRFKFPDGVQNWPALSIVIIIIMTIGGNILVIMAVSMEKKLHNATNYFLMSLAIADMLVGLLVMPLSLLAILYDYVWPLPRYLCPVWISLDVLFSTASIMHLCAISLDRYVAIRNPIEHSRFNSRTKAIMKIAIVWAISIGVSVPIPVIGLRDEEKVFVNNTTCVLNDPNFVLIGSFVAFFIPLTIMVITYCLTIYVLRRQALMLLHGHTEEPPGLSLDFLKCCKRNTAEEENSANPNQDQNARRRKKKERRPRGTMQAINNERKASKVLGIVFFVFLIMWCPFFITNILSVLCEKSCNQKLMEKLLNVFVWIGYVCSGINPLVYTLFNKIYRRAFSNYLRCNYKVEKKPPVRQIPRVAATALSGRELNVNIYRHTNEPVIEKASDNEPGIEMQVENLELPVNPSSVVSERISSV
As to the kind of experiment: FLIPR Ca2+ flux functional assay, 5-HT2C agonist activity. To be noted: for Emax: agonist activity, Ca2+ flux, stably transfected HEK293 cells. The procedure:
as §1, §2

Bounds are passed on as bounds.

T1 sequence (P28223 whole entry): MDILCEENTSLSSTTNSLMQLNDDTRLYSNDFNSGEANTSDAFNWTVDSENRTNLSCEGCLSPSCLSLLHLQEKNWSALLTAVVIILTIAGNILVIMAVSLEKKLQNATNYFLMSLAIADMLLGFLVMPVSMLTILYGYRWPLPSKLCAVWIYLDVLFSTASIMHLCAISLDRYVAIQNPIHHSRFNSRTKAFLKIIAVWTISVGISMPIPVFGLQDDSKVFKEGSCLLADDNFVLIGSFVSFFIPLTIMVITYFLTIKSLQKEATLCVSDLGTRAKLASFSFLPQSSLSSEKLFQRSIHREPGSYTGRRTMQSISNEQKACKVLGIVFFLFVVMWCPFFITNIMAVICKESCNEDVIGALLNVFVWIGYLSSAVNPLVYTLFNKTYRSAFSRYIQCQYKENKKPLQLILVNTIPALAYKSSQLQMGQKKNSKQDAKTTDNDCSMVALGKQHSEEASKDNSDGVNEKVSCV

`CCC(C)N(C)CCc1c[nH]c2cccc(OC)c12` (stereo not drawn) [Compound P-23, N-(2-(4-methoxy-1H-indol-3-yl)ethyl)-N-methylbutan-2-amine]: the figures for the EC50 in experiment [1], in experiment [2] and in experiment [3] were 0.124 µM, > 10 µM and 0.465 µM, respectively. The Emax in experiment [1] is 50.3%; in experiment [2], -0.21%; in experiment [3] it was 21.7%.
For the compound `CCC(C)N(CC)CCc1c[nH]c2cccc(OC)c12` (stereo not drawn) [Compound P-24, N-ethyl-N-(2-(4-methoxy-1H-indol-3-yl)ethyl)butan-2-amine], the concentration for a half-maximal effect (EC50) was 0.0702 µM in experiment [1], 0.444 µM in experiment [2] and 0.964 µM in experiment [3]. Moreover, the Emax in experiment [1] was found to be 77.7%; in experiment [2], 52.6%; in experiment [3], 68.6%.
Consider `CCN(CCc1c[nH]c2cccc(OC)c12)C(C)C` [Compound P-25, N-ethyl-N-(2-(4-methoxy-1H-indol-3-yl)ethyl)propan-2-amine], for which the concentration for a half-maximal effect (EC50) came to 0.121 µM in experiment [1], 0.459 µM in experiment [2] and 0.676 µM in experiment [3]. The Emax worked out at 85.9% in experiment [1], 61.4% in experiment [2] and 77.8% in experiment [3].
Consider `CCCN(CCc1c[nH]c2cccc(OC)c12)C(C)C` [Compound P-26, N-isopropyl-N-(2-(4-methoxy-1H-indol-3-yl)ethyl)propan-1-amine], for which the EC50 was 0.0365 µM in experiment [1], 0.103 µM in experiment [2] and 0.106 µM in experiment [3]. The Emax is 81.6% in experiment [1], 96% in experiment [2] and 87.1% in experiment [3].
On to `CCCN(C)CCc1c[nH]c2ccc(OC(F)(F)F)cc12` [Compound P-34, N-methyl-N-(2-(5-(trifluoromethoxy)-1H-indol-3-yl)ethyl)propan-1-amine], for which the results for the concentration giving a half-maximal response (EC50) in experiment [1], in experiment [2] and in experiment [3] were 0.665 µM, > 10 µM and 0.329 µM, respectively. Further, the Emax in experiment [1] is 53.7%; in experiment [2] it was 18.9%; in experiment [3] it was 81.7%.
For `Cc1cccc2[nH]cc(CCN(C)C(C)C)c12` [Compound P-42, N-methyl-N-(2-(4-methyl-1H-indol-3-yl)ethyl)propan-2-amine], the half-maximal effective concentration (EC50) in experiment [1] turned out to be 0.0396 µM; in experiment [2] it was 0.814 µM; in experiment [3], 0.0486 µM. Also, the values for the Emax in experiment [1], in experiment [2] and in experiment [3] were 94.7%, 41.4% and 91.2%, respectively.
As for `COc1cccc2[nH]cc(CCN(C)CC(C)C)c12` [Compound P-136, N-(2-(4-methoxy-1H-indol-3-yl)ethyl)-N,2-dimethylpropan-1-amine], the figures for the EC50 in experiment [1], in experiment [2] and in experiment [3] were 0.0915 µM, > 10 µM and 0.261 µM, respectively. Further, the values for the Emax in experiment [1], in experiment [2] and in experiment [3] were 100%, -1.63% and 78.5%, respectively.
For `CCN(CCc1c[nH]c2cccc(OC)c12)CC(C)C` [Compound P-137, N-ethyl-N-(2-(4-methoxy-1H-indol-3-yl)ethyl)-2-methylpropan-1-amine], the results for the concentration giving a half-maximal response (EC50) in experiment [1], in experiment [2] and in experiment [3] were 0.0856 µM, > 10 µM and 0.138 µM, respectively. Further, the Emax came out at 95.8% in experiment [1], 19.4% in experiment [2] and 96.2% in experiment [3].
In the case of `CCN(CCc1c[nH]c2cccc(O)c12)C(C)C` [Compound P-138, 3-(2-(ethyl(isopropyl)amino)ethyl)-1H-indol-4-ol], the EC50 came to 0.0199 µM in experiment [1], 0.322 µM in experiment [2] and 0.862 µM in experiment [3]. Further, the Emax in experiment [1] was found to be 105%; in experiment [2], 53.5%; in experiment [3] it was 83.3%.
In the case of `CCC(C)N(CC)CCc1c[nH]c2cccc(O)c12` (stereo not drawn) [Compound P-139, 3-(2-(sec-butyl(ethyl)amino)ethyl)-1H-indol-4-ol], the figures for the EC50 in experiment [1], in experiment [2] and in experiment [3] were 0.054 µM, > 10 µM and 1.9 µM, respectively. In addition, the figures for the Emax in experiment [1], in experiment [2] and in experiment [3] were 107%, 15.7% and 55.2%, respectively.

The values are drawn from US20250074873A1, “COMPOUNDS” (Psylo Pty Ltd, priority 2021, published 2025).
